Measurements from patent US10660877B2 (BRISTOL-MYERS SQUIBB COMPANY, priority 2016, dated 2020).

Tests used:
[1] = molecular target: human TLR7 (Homo sapiens (Human), UniProt Q9NYK1); experiment: TLR7 inhibition reporter assay (HEK-Blue cells, SEAP reporter, gardiquimod stimulation); assay type: cell-based; conditions: HEK-Blue cells overexpressing human TLR7, gardiquimod 7.5 μM
[2] = molecular target: human TLR8 (Homo sapiens (Human), UniProt Q9NR97); experiment: TLR8 inhibition reporter assay (HEK-Blue cells, SEAP reporter, R848 stimulation); conditions: read-out: TLR8 IC50, HEK-Blue cells overexpressing human TLR8, R848 15.9 μM;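 further: compounds tested from 0.05 nM to 50 µM, 22 h at 37 °C, SEAP measured with HEK-Blue Detection, inhibition relative to agonist plus DMSO versus a known inhibitor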
Sequence of human TLR8 (Q9NR97 27-1041): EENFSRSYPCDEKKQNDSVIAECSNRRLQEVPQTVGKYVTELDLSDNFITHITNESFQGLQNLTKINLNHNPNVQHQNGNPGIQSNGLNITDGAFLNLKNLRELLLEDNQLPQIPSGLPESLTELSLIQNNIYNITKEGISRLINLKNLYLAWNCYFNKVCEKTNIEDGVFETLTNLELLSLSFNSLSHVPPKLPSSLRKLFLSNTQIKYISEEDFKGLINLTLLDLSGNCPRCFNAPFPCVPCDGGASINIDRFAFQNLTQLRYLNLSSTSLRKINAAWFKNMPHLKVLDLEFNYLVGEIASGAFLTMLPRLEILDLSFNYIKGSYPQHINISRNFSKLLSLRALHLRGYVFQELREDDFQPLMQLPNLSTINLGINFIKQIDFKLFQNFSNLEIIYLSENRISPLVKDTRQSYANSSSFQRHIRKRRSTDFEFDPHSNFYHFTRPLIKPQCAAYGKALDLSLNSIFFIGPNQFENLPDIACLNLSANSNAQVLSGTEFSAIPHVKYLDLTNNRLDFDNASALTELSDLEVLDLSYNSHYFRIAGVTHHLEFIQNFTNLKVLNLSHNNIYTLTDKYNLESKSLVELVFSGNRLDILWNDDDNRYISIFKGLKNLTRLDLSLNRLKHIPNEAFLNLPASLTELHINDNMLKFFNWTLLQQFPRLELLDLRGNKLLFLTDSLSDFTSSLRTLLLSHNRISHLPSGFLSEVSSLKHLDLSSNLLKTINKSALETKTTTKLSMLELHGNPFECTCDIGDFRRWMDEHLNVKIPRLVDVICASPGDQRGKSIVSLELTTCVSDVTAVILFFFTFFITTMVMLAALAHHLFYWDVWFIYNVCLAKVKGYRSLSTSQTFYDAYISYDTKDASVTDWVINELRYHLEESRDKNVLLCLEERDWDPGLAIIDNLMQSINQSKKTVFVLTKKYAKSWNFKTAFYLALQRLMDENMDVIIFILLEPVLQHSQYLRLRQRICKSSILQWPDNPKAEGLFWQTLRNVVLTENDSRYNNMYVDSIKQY

[3] = molecular target: human TLR9 (Homo sapiens (Human), UniProt Q9NR96); experiment: TLR9 inhibition reporter assay (HEK-Blue cells, SEAP reporter, ODN2006 stimulation); conditions: read-out: TLR9 IC50, HEK-Blue cells overexpressing human TLR9, ODN2006 5 nM;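 further: compounds tested over 0.05 nM to 50 µM, 22 h incubation, inhibition taken as SEAP signal drop from agonist plus DMSO wells toward a known inhibitor control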
Sequence of human TLR9 (Q9NR96 26-1032): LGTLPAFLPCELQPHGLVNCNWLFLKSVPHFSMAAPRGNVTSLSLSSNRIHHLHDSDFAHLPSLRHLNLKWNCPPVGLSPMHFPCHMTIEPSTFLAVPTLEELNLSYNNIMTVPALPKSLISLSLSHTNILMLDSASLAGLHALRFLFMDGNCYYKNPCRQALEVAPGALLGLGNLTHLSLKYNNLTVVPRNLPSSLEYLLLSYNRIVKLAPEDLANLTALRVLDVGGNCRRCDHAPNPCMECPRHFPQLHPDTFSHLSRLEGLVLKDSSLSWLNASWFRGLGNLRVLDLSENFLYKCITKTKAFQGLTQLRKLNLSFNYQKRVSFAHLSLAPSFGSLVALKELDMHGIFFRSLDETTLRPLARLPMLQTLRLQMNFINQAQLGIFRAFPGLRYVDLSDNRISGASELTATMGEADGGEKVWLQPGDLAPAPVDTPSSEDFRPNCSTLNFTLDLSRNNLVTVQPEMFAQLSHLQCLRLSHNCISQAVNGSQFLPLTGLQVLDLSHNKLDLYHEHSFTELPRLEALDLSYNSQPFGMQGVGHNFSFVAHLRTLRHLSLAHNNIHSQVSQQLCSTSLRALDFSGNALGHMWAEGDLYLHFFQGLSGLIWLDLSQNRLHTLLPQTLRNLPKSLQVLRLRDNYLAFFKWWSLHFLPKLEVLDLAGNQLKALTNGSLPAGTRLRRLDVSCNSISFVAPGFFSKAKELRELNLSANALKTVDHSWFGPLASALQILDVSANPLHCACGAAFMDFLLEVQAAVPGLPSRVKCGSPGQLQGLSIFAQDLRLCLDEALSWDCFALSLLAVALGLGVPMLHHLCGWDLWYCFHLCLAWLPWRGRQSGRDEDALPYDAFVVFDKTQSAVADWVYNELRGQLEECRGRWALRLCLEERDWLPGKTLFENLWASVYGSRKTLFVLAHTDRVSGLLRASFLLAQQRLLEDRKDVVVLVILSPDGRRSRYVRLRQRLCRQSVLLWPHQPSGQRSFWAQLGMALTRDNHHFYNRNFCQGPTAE

Sequence of human TLR7 (Q9NYK1 27-1049): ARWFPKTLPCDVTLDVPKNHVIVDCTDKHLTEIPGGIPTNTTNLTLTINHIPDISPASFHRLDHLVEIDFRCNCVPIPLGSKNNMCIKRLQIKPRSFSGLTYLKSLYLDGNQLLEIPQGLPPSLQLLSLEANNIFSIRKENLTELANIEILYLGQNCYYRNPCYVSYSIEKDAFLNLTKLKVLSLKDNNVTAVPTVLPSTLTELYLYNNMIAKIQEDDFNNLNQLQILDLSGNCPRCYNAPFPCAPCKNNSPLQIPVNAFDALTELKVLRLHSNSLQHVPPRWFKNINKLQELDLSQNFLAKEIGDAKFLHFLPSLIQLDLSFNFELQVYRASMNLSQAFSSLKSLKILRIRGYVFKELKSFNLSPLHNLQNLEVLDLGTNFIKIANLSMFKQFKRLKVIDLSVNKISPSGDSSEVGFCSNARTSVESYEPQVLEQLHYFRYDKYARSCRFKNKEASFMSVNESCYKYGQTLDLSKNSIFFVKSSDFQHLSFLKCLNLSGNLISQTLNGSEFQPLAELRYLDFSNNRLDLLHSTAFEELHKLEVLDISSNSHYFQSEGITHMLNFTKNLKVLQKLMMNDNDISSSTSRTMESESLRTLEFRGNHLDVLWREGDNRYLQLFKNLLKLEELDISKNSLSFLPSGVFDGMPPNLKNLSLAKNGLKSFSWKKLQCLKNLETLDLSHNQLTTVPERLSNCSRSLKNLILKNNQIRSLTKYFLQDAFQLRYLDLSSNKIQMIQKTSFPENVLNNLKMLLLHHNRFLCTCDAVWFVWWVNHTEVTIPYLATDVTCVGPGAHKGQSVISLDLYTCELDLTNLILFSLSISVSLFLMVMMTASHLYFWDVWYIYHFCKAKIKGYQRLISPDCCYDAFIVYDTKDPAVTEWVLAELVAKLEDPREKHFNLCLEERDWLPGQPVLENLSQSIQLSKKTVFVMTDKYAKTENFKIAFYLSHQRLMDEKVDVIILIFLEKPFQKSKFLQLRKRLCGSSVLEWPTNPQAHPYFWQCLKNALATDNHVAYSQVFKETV

IC50 [1] [nM] | IC50 [2] [nM] | IC50 [3] [nM] | SMILES
30.1 | 48 | > 50000 | Cc1nccc(-c2[nH]c3ccc(C4CCN(C(=O)C5CC(=O)N(C)C5)CC4)cc3c2C(C)C)c1F (stereo not drawn) [Example 582, 4-(4-(2-(3-fluoro-2-methylpyridin-4-yl)-3-isopropyl-1H-indol-5-yl)piperidine-1-carbonyl)-1-methylpyrrolidin-2-one]
15.6 | 36.8 | > 50000 | Cc1cc(-c2[nH]c3ccc(C4CCN(C(=O)C5CC(=O)N(C)C5)CC4)cc3c2C(C)C)c(F)cn1 (stereo not drawn) [Example 583, 4-(4-(2-(5-fluoro-2-methylpyridin-4-yl)-3-isopropyl-1H-indol-5-yl)piperidine-1-carbonyl)-1-methylpyrrolidin-2-one]
43 | 45.9 | > 50000 | CC(=O)N1CCC(c2ccc3[nH]c(-c4cc(C)ncc4C)c(C(C)C)c3c2)CC1 [Example 584, 1-(4-(2-(2,5-dimethylpyridin-4-yl)-3-isopropyl-1H-indol-5-yl)piperidin-1-yl)ethan-1-one]
10.8 | 5.2 | 1670 | Cc1cc(-c2[nH]c3ccc(C4CCN(C(=O)CN(C)C)CC4)cc3c2C(C)C)c(C)cn1 [Example 585, 2-(dimethylamino)-1-(4-(2-(2,5-dimethylpyridin-4-yl)-3-isopropyl-1H-indol-5-yl)piperidin-1-yl)ethan-1-one]
2.6 | 6.2 | 3040 | Cc1cc(-c2[nH]c3ccc(C4CCN(C(=O)CN(C)C)CC4)cc3c2C(C)C)c(F)cn1 [Example 586, 2-(dimethylamino)-1-(4-(2-(5-fluoro-2-methylpyridin-4-yl)-3-isopropyl-1H-indol-5-yl)piperidin-1-yl)ethan-1-one]
2.7 | 5.2 | 2910 | Cc1nccc(-c2[nH]c3ccc(C4CCN(C(=O)CN(C)C)CC4)cc3c2C(C)C)c1F [Example 587, 2-(dimethylamino)-1-(4-(2-(3-fluoro-2-methylpyridin-4-yl)-3-isopropyl-1H-indol-5-yl)piperidin-1-yl)ethan-1-one]
0.5 | 1.3 | 845 | Cc1cc(-c2[nH]c3ccc(C4CCN(C(=O)CN(C)C)CC4)cc3c2C(C)C)c(F)c(C)n1 [Example 588, 2-(dimethylamino)-1-(4-(2-(3-fluoro-2,6-dimethylpyridin-4-yl)-3-isopropyl-1H-indol-5-yl)piperidin-1-yl)ethan-1-one]
4.7 | 27.6 | 2110 | Cc1cc(-c2[nH]c3ccc(C4CCN(C(=O)CCN(C)C5COC5)CC4)cc3c2C(C)C)cc(C)n1 [Example 589, 1-(4-(2-(2,6-dimethylpyridin-4-yl)-3-isopropyl-1H-indol-5-yl)piperidin-1-yl)-3-(methyl(oxetan-3-yl)amino)propan-1-one]
4.2 | 18.4 | 142 | Cc1cc(-c2[nH]c3ccc(C4CCN(C(=O)CN(C)C)CC4)cc3c2C2CC2)cc(C)n1 [Example 590, 1-(4-(3-cyclopropyl-2-(2,6-dimethylpyridin-4-yl)-1H-indol-5-yl)piperidin-1-yl)-2-(dimethylamino)ethan-1-one]
251 | 241 | 15400 | CCc1c(-c2ccnc(C)c2)[nH]c2ccc(C3CCN(C(=O)c4ccncc4)CC3)cc12 [Example 591, (4-(3-ethyl-2-(2-methylpyridin-4-yl)-1H-indol-5-yl)piperidin-1-yl)(pyridin-4-yl)methanone]
276 | 235 | 17100 | CCc1c(-c2ccnc(C)c2)[nH]c2ccc(C3CCN(C(=O)c4ccnc(F)c4)CC3)cc12 [Example 592, (4-(3-ethyl-2-(2-methylpyridin-4-yl)-1H-indol-5-yl)piperidin-1-yl)(2-fluoropyridin-4-yl)methanone]
